In patent publication US20040266659A1, “[…] THAT ENHANCE RECALL AND LUCIDITY DURING DREAMING” (priority 2003, published 2004):
Like-named read-outs stand apart in the source and are kept apart here.

Experiments:
lucid dreaming = test system: lucid dreaming
Source text: These include: 1. Using a cholinergic agonist (e.g., nicotine).

REM sleep = conditions: cited from earlier work
[1] = test system: normal volunteers self-selected for high dream recall and interest in lucid dreaming; assay: randomized, double blind, placebo-controlled crossover trial of donepizil for lucid dreaming; type: in vivo, human; conditions: for odds of lucid dreaming: placebo 0.031
Source text: Subjects collected dream content and other self-report measures on three nights, separated by a washout period of at least one week. […] After each spontaneous awakening during the three nights, Ss evaluated dream content on a range of measures including bizarreness, complexity, and intensity, affect, cognitive clarity, lucidity, and control. They also estimated sleep quality, insomnia, and degree of any adverse effects.

[2] = rivastigmin 6-12 mg dose, galantamine 8-16 mg

For huperzine, the “outcome of test for lucid dreaming enhancement” value (lucid dreaming; dose correspondence with Aricept not yet worked out) was “promising results”.

With CCN(C)C(=O)Oc1cccc([C@H](C)N(C)C)c1 [Exelon, rivastigmin] the “efficacy compared with Aricept” value (lucid dreaming; [2]) was “work as well as” and the “side effects compared with Aricept” value (lucid dreaming; [2]) was “perhaps fewer side effects”.

For COC(=O)C1=CCCN(C)C1 [arecoline], the “effect on REM sleep” value (REM sleep; scientific literature studies) is listed as “triggering/intensification of REM sleep”.

In the case of COc1cc2c(cc1OC)C(=O)C(CC1CCN(Cc3ccccc3)CC1)C2 (centres unmarked) [donepizil], the “levels of dream variables, 5 mg dose vs placebo” value ([1]; 5 mg compared to placebo) is reported as “significant elevations”, the “odds of lucid dreaming” value ([1]; 5 mg) is reported as 0.429 and the “levels of dream variables, 10 mg dose vs 5 mg dose” value ([1]; 10 mg compared to 5 mg) is reported as “significantly higher levels”. For the same molecule, the “odds of lucid dreaming” value ([1]; 10 mg) was 0.754, the “self-reported cognitive clarity, self-reflection and lucidity during dreaming, compared to placebo” value ([1]; both 5 and 10 mg dosages) was “significantly enhance” and the “frequency of sleep paralysis” value ([1]; donepizil vs placebo) was “significantly elevated”. The “Ss reporting one or more lucid dreams on the experimental nights” value ([1]; nine of 10 Ss, 5 or 10 mg at bedtime, only one S on a placebo night) was 90%, the “estimated time awake during the night” value ([1]; of a 9.0 hr night, placebo 126 min, p<0.05) was 176 min and the “incidence of adverse events, notably mild insomnia and gastrointestinal symptoms” value ([1]; primarily associated with the higher dose, two subjects nausea, one vomiting) was “low”. For the same molecule, the “cognitive clarity, lucidity, recall, control, bizarreness and visual vividness compared to placebo” value ([1]; self-report after each spontaneous awakening, donepizil vs placebo) was “significantly elevated” and the “increase in estimated time awake during the night” value ([1]; vs placebo, 9.0 hr night, p<0.05) was 40%.

In the case of C[N+](C)(C)CCOC(N)=O [carbachol], the “effect on REM sleep” value (REM sleep; microinjection in certain locations of the brain, such as the Pons) is listed as “elicits extended periods of REM sleep”.

For COc1ccc2c3c1O[C@H]1C[C@@H](O)C=C[C@@]31CCN(C)C2 [galantamine], the “side effects compared with Aricept” value (lucid dreaming; [2]) was “perhaps fewer side effects”.
